What all share (assay type): cell-based
Experiment [1] concerns the target T1, CDK2 (Homo sapiens, UniProt P24941).
T1 construct: host or cells: HEK293-CDK2-Hibit
Put plainly: HiBit Assay Protocol for CDK2 (HIBIT protein quantification, degradation). Conditions: HEK293-CDK2-Hibit cells, compound treatment for 6 hours; for DC50: ABS DC50. The method, boiled down:
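HEK293 cells expressing HiBiT-tagged CDK2 were seeded overnight, then treated 6 h with a 3-fold, 10-point compound dilution series. CDK2 levels were read as luminescence after lytic HiBiT/LgBiT detection, normalised to DMSO-only and medium-only controls, and DC50 derived by curve fitting.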

Experiment [2] deals with T2, CDK9 (Homo sapiens, UniProt P50750).
T2 construct: host or cells: HEK293-CDK9-Hibit
T2 sequence (P50750 whole entry): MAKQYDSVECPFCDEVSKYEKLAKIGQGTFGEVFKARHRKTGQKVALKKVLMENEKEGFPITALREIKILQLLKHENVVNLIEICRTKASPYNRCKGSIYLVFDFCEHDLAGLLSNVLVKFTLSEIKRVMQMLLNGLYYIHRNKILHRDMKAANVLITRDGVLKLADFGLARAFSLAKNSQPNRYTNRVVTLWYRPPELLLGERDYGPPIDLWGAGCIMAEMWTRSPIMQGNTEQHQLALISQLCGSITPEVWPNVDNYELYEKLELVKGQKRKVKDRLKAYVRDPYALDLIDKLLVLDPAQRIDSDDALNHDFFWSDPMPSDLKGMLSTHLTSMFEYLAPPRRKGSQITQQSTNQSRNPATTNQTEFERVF
The experiment is described as follows: HiBit Assay Protocol for CDK9 (HIBIT protein quantification, degradation). Particulars: HEK293-CDK9-Hibit cells, compound treatment for 6 hours; for Dmax: read-out: CDK9 HIBIT Protein Quantification Maximum; for DC50: ABS DC50. Put shortly:
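HEK293 cells carrying HiBiT-tagged CDK9 treated 6 h with compounds in a 3-fold, 10-point dilution series. CDK9 level read by lytic Nano-Glo HiBiT/LgBiT luminescence and normalized to 0.1% DMSO (high) and medium-only (low) controls. DC50 from curve fitting.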

For experiment [3], the target named is T3, CCNE1 (Homo sapiens, UniProt P24864).
T3 construct: host or cells: HEK293-CCNE1-Hibit
T3 sequence (P24864 whole entry): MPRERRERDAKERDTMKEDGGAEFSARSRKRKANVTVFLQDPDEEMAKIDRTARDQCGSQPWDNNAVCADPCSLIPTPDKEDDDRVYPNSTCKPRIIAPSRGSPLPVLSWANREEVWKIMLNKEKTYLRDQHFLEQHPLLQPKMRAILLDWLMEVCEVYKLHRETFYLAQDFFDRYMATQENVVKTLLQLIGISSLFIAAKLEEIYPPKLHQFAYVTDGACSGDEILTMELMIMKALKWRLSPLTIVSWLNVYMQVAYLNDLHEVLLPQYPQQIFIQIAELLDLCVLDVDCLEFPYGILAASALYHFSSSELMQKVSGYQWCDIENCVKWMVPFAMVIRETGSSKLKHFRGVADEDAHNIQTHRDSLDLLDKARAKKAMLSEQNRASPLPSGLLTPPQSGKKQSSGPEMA
The experiment is described as follows: HiBit Assay Protocol for CCNE1 (HIBIT protein quantification, degradation). Particulars: HEK293-CCNE1-Hibit cells, compound treatment for 6 hours. The method, boiled down: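 HEK293 cells expressing HiBiT-tagged CCNE1 were seeded overnight, then treated 6 h with a 3-fold, 10-point compound dilution series. HiBiT levels were read by lytic LgBiT luminescence and normalised to DMSO-only (high) and medium-only (low) controls. DC50 was derived by curve fitting.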

Like-named read-outs stand apart in the source and are kept apart here.

Regarding `Cn1nc(N2CCC(=O)NC2=O)c2ccc(C3CCN(Cc4cc(F)cc(S(=O)(=O)N5CCC(Nc6ncc7c(n6)N([C@@H]6CCC[C@@H](O)C6)C(=O)C76CC6)CC5)c4)CC3)cc21` [Compound 170, 1-[6-(1-{[3-Fluoro-5-(4-{7′-[(1R,3R)-3-hydroxycyclohexyl]-6′-oxospiro[cyclopropane-1,5′-pyrrolo[2,3-d]pyrimidin]-2′-ylamino}piperidin-1-ylsulfonyl)phenyl]methyl}piperidin-4-yl)-1-methylindazol-3-yl]-1,3-diazinane-2,4-dione], in experiment [1], the “CDK2 HIBIT Protein Quantification Maximum” value was 75% and it took 3.63 nM to reach half-maximal degradation (DC50). In experiment [2], the Dmax was found to be 5%. The “CCNE1 HIBIT Protein Quantification Maximum” value in experiment [3] turned out to be 46%.

For `O=C1CCC(N2Cc3cc(N4CCN(Cc5cccc(S(=O)(=O)N6CCC(Nc7ncc8c(n7)N([C@@H]7CCC[C@@H](O)C7)C(=O)C87CC7)CC6)c5)CC4)c(F)cc3C2=O)C(=O)N1` (stereo partly drawn) [Compound 121, 3-(6-fluoro-5-(4-(3-((4-((7′-((1R,3R)-3-hydroxycyclohexyl)-6′-oxo-6′,7′-dihydrospiro [cyclopropane-1,5′-pyrrolo[2,3-d]pyrimidin]-2′-yl)amino)piperidin-1-yl)sulfonyl)benzyl)piperazin-1-yl)-1-oxoisoindolin-2-yl)piperidine-2,6-dione], in experiment [1], the “CDK2 HIBIT Protein Quantification Maximum” value is given as 79% and the DC50 worked out at 47 nM. For the same molecule, the Dmax in experiment [2] (6 h) amounted to 12%. Also, the “CCNE1 HIBIT Protein Quantification Maximum” value in experiment [3] worked out at 44%.

Take `CC1CCCC1N1C(=O)C2(CC2)c2cnc(NC3CCN(S(=O)(=O)C4CCCN(C(=O)CCCCCc5cccc6c5n(C)c(=O)n6C5CCC(=O)NC5=O)C4)CC3)nc21` (stereo not drawn) [Compound 44]: the “CDK2 HIBIT Protein Quantification Maximum” value in experiment [1] stood at 39%. Besides, the Dmax in experiment [2] (6 h) came to 5%. Besides, the “CCNE1 HIBIT Protein Quantification Maximum” value in experiment [3] is recorded as 44%.

In the case of `CC1CCCC1N1C(=O)C2(CC2)c2cnc(NC3CCN(S(=O)(=O)N4CCCN(C(=O)CCCCc5cccc6c5n(C)c(=O)n6C5CCC(=O)NC5=O)CC4)CC3)nc21` (stereo not drawn) [Compound 100], in experiment [1], the “CDK2 HIBIT Protein Quantification Maximum” value is 62% and half-maximal degradation (DC50) was put at 6 nM. Moreover, the Dmax in experiment [2] (6 h) is 34%. For the same molecule, the “CCNE1 HIBIT Protein Quantification Maximum” value in experiment [3] was 31%.

For the molecule `CC1CCCC1N1C(=O)C2(CC2)c2cnc(NC3CCN(S(=O)(=O)N4CCN(C(=O)CCCc5cccc6c5n(C)c(=O)n6C5CCC(=O)NC5=O)CC4)CC3)nc21` (stereo not drawn) [Compound 27], in experiment [1], the “CDK2 HIBIT Protein Quantification Maximum” value turned out to be 57% and half-maximal degradation (DC50) was put at 19 nM. For the same molecule, in experiment [2] (6 h), the Dmax was 49%. In addition, in experiment [3], the “CCNE1 HIBIT Protein Quantification Maximum” value worked out at 27%.

In the case of `CC1CCCC1N1C(=O)C2(CC2)c2cnc(NC3CCN(S(=O)(=O)N4CC5(CCCCN5C(=O)CCCCc5ccc6c(c5)n(C)c(=O)n6C5CCC(=O)NC5=O)C4)CC3)nc21` (stereo not drawn) [Compound 106], the “CDK2 HIBIT Protein Quantification Maximum” value in experiment [1] was determined as 32%. In addition, the Dmax in experiment [2] (6 h) is 12%. The “CCNE1 HIBIT Protein Quantification Maximum” value in experiment [3] is on record as 3%.

For the molecule `C[C@H](c1cccc(S(=O)(=O)N2CC[C@H](Nc3ncc4c(n3)N([C@@H]3CCC[C@@H](O)C3)C(=O)C43CC3)[C@H](F)C2)c1)N1CCC(c2ccc3c(N4CCC(=O)NC4=O)nn(C)c3c2)CC1` [Compound 198], in experiment [1], the “CDK2 HIBIT Protein Quantification Maximum” value was 80% and half-maximal degradation (DC50) was put at 2.48 nM. In experiment [2] (6 h), the Dmax is 2%. Further, the “CCNE1 HIBIT Protein Quantification Maximum” value in experiment [3] is recorded as 40%.

With `CC1CCCC1N1C(=O)C2(CC2)c2cnc(NC3CCN(S(=O)(=O)N4CC(N(C)C(=O)CCCCCCCCCc5cccc6c5n(C)c(=O)n6C5CCC(=O)NC5=O)C4)CC3)nc21` (stereo not drawn) [Compound 49], the “CDK2 HIBIT Protein Quantification Maximum” value in experiment [1] is on record as 62%. For the same molecule, the DC50 is 34 nM in experiment [1] and 6.53 nM in experiment [2]. The Dmax in experiment [2] (6 h) amounted to 66%. Also, the “CCNE1 HIBIT Protein Quantification Maximum” value in experiment [3] was 8%.

For `CC1CCCC1N1C(=O)C2(CC2)c2cnc(NC3CCN(S(=O)(=O)N4CC5(CCCCN5C(=O)CCCc5cccc6c5n(C)c(=O)n6C5CCC(=O)NC5=O)C4)CC3)nc21` (stereo not drawn) [Compound 26], the “CDK2 HIBIT Protein Quantification Maximum” value in experiment [1] came out at 42%. Further, the Dmax in experiment [2] (6 h) was found to be 9%. Also, the “CCNE1 HIBIT Protein Quantification Maximum” value in experiment [3] was determined as 8%.

For `CC1CCCC1N1C(=O)C2(CC2)c2cnc(NC3CCN(S(=O)(=O)N4CC5(CCN(C(=O)CCCCCCCCCc6ccc7c(c6)n(C)c(=O)n7C6CCC(=O)NC6=O)CC5)C4)CC3)nc21` (stereo not drawn) [Compound 88], in experiment [1], the “CDK2 HIBIT Protein Quantification Maximum” value is 55% and the DC50 amounted to 7 nM. In experiment [2] (6 h), the Dmax was 24%. Moreover, the “CCNE1 HIBIT Protein Quantification Maximum” value in experiment [3] came to 21%.

In the case of `CC1CCCC1N1C(=O)C2(CC2)c2cnc(NC3CCN(S(=O)(=O)N4CCCN(C(=O)CCCc5ccc6c(c5)n(C)c(=O)n6C5CCC(=O)NC5=O)CC4)CC3)nc21` (stereo not drawn) [Compound 72], the “CDK2 HIBIT Protein Quantification Maximum” value in experiment [1] amounted to 25%. In experiment [2] (6 h), the Dmax was determined as 42%. Also, the “CCNE1 HIBIT Protein Quantification Maximum” value in experiment [3] stood at 8%.

`CC(C)[C@H]1CN([C@@H](C)c2cccc(S(=O)(=O)N3CC[C@H](Nc4ncc5c(n4)N([C@@H]4CCC[C@@H](O)C4)C(=O)C54CC4)[C@H](F)C3)c2)CCN1c1ccc2c(N3CCC(=O)NC3=O)nn(C)c2c1` (single isomer, unassigned) [Compound 202]: in experiment [1], the “CDK2 HIBIT Protein Quantification Maximum” value is on record as 88% and the DC50 was found to be 10.9 nM. Further, the Dmax in experiment [2] (6 h) was found to be 20%. Moreover, the “CCNE1 HIBIT Protein Quantification Maximum” value in experiment [3] is reported as 37%.

On to `C[C@@H](c1cccc(S(=O)(=O)N2CC[C@H](Nc3ncc4c(n3)N([C@@H]3CCC[C@@H](O)C3)C(=O)C43CC3)[C@H](F)C2)c1)N1CCN(c2ccc3c(N4CCC(=O)NC4=O)nn(C)c3c2)CC1` [Compound 197], for which, in experiment [1], the “CDK2 HIBIT Protein Quantification Maximum” value turned out to be 91% and the half-maximal degradation concentration (DC50) came to 10.5 nM. In addition, the Dmax in experiment [2] (6 h) is 8%. In experiment [3], the “CCNE1 HIBIT Protein Quantification Maximum” value is 33%.

For the molecule `CC1CCCC1N1C(=O)C2(CC2)c2cnc(NC3CCN(S(=O)(=O)N4CC5(CCCN(C(=O)CCCCCCCCCc6ccc7c(c6)n(C)c(=O)n7C6CCC(=O)NC6=O)C5)C4)CC3)nc21` (stereo not drawn) [Compound 87], in experiment [1], the “CDK2 HIBIT Protein Quantification Maximum” value came out at 44%. For the same molecule, the Dmax in experiment [2] (6 h) stood at 13%. Also, the “CCNE1 HIBIT Protein Quantification Maximum” value in experiment [3] came out at 11%.

For `CC1CCCC1N1C(=O)C2(CC2)c2cnc(NC3CCN(S(=O)(=O)N4CCN(C(=O)CCCCCc5cccc6c5n(C)c(=O)n6C5CCC(=O)NC5=O)CC4)CC3)nc21` (stereo not drawn) [Compound 38], in experiment [1], the “CDK2 HIBIT Protein Quantification Maximum” value is reported as 71% and the DC50 came out at 4 nM. For the same molecule, the Dmax in experiment [2] (6 h) worked out at 57%. It took 23 nM to reach half-maximal degradation in experiment [2] (DC50). The “CCNE1 HIBIT Protein Quantification Maximum” value in experiment [3] was found to be 46%.

`CC(c1cccc(S(=O)(=O)N2CC[C@H](Nc3ncc4c(n3)N([C@@H]3CCC[C@@H](O)C3)C(=O)C43CC3)[C@H](F)C2)c1)N1CCN(c2ccc3c(N4CCC(=O)NC4=O)nn(C)c3c2)C[C@H]1C` (stereo partly drawn) [Compound 195, 1-(6-((3R)-4-(1-(3-(((3R,4S)-3-Fluoro-4-((7′-((1R,3R)-3-hydroxycyclohexyl)-6′-oxo-6′,7′-dihydrospiro[cyclopropane-1,5′-pyrrolo[2,3-d]pyrimidin]-2′-yl)amino)piperidin-1-yl)sulfonyl)phenyl)ethyl)-3-methylpiperazin-1-yl)-1-methyl-1H-indazol-3-yl)dihydropyrimidine-2,4(1H,3H)-dione]: in experiment [1], the “CDK2 HIBIT Protein Quantification Maximum” value was determined as 92% and half-maximal degradation (DC50) was put at 5.54 nM. In experiment [2] (6 h), the Dmax was 21%. In addition, in experiment [3], the “CCNE1 HIBIT Protein Quantification Maximum” value is given as 41%.

Regarding `O=C1CCC(N2Cc3cc(N4CCC(N5CC(Oc6cccc(S(=O)(=O)c7ccc(Nc8ncc9c(n8)N([C@@H]8CCC[C@@H](O)C8)C(=O)C98CC8)cc7)c6)C5)CC4)ccc3C2=O)C(=O)N1` (stereo partly drawn) [Compound 127], in experiment [1], the “CDK2 HIBIT Protein Quantification Maximum” value is given as 69% and it took 6 nM to reach half-maximal degradation (DC50). Further, the Dmax in experiment [2] (6 h) is 49%. For the same molecule, the “CCNE1 HIBIT Protein Quantification Maximum” value in experiment [3] is recorded as 46%.

Consider `CC1CCCC1N1C(=O)C2(CC2)c2cnc(NC3CCN(S(=O)(=O)N4CC5C4CCN5C(=O)CCCCCc4ccc5c(c4)n(C)c(=O)n5C4CCC(=O)NC4=O)CC3)nc21` (stereo not drawn) [Compound 78], for which the “CDK2 HIBIT Protein Quantification Maximum” value in experiment [1] is recorded as 29%. In experiment [2] (6 h), the Dmax stood at 23%. The “CCNE1 HIBIT Protein Quantification Maximum” value in experiment [3] is given as 17%.

Consider `CC(C)[C@H]1CN([C@H](C)c2cccc(S(=O)(=O)N3CC[C@H](Nc4ncc5c(n4)N([C@@H]4CCC[C@@H](O)C4)C(=O)C54CC4)[C@H](F)C3)c2)CCN1c1ccc2c(N3CCC(=O)NC3=O)nn(C)c2c1` (stereo in doubt) [Compound 203], for which, in experiment [1], the “CDK2 HIBIT Protein Quantification Maximum” value was 85% and half-maximal degradation (DC50) was put at 10.2 nM. Besides, the Dmax in experiment [2] (6 h) was determined as 18%. Besides, in experiment [3], the “CCNE1 HIBIT Protein Quantification Maximum” value is 34%.

With `CC1CCCC1N1C(=O)C2(CC2)c2cnc(NC3CCN(S(=O)(=O)N4CC5(CCN(C(=O)Cc6cccc7c6n(C)c(=O)n7C6CCC(=O)NC6=O)CC5)C4)CC3)nc21` (stereo not drawn) [Compound 15], the “CDK2 HIBIT Protein Quantification Maximum” value in experiment [1] is reported as 27%. In experiment [2] (6 h), the Dmax is -3%. Further, the “CCNE1 HIBIT Protein Quantification Maximum” value in experiment [3] came out at 15%.
